Bridge positions count the residues as written; N and C are the ends. Square brackets hold non-standard residues; d marks the D form. Ends that are not written are not given here. Peptide text beside a SMILES is read from it.
Legend:
[1] = Anti-obesity therapy, regular diet-fed old mice; parameters: species or system C57BL/6 mice; details: mouse, in vivo
[2] = tested on: adipose tissue; assay: Histopathological analysis of tissues from treated mice; details: mouse, in vivo
Protocol: (§1) Staining of formalin-fixed, paraffin-embedded mouse tissue sections was performed (Pasqualini & Rouslahti, 1996; Pasqualini et al., 2000). For phage-peptide immunolocalization, 10^10 TU of […] (SEQ ID NO:81)-phage or a control insertless phage was injected intravenously. Phage immunohistochemistry was performed using a rabbit anti-fd phage antibody (Sigma Chemicals, St. Louis, Mo.) used at 1:1,000 dilution and a secondary horseradish peroxidase (HRP)-conjugated antibody. Apoptosis was detected using standard TUNEL immunohistochemistry and an HRP-conjugated antibody. For in vivo peptide homing validation, stocks of 5-carboxyfluorescein (FITC)-conjugated […] (SEQ ID NO:81) or CARAC (SEQ ID NO:71) were chemically synthesized, cyclized using the terminal cysteines and HPLC-purified to >90% purity by Anaspec (San Jose, Calif.). Lyophilized peptides were dissolved in DMSO to a concentration of 20 mM. Ten μl of 1 mM peptide-FITC solution in PBS was injected 5 min prior to tissue extraction. For blood vessel localization, 10 μl of 2 mg/ml of rhodamine-conjugated lectin-I (RL-1102, Vector Laboratories, Burlingame, Calif.) was co-injected. All immunohistochemistry and FITC immunofluorescence images were captured using an Olympus IX70 microscope and digital camera setup (Melville, N.Y.).

[3] = Injection into genetically obese mice; type: in vivo; details: not normal obese mice
[4] = tested on: MDA-MB-435 cells; assay: Targeted phage vector transduction and peptide inhibition in cell culture; type: cell-based, human; details: cells pre-incubated with synthetic peptide
Protocol: (§2) Targeted phage vector transduction and specific inhibition by using synthetic peptides. MDA-MB-435 breast cancer and KS1767 Karposi's sarcoma cells were cultured on 8-well chamber glass slides. The culture media was replaced by 200 μl of MEM with 2% FCS and 5×10^10 TU of RGD-4C-β-gal, HWGF-β-gal, or fd-β-gal phage vectors (at 10^5 transducing units/cell in each case). Both cell lines express high levels of the integrin and MMP receptors for those targeting peptides. Phage were incubated with cells for 3 hr at 37° C., followed by a medium change to MEM plus 10% FCS. The cells were incubated for 72 hr at 37° C. to allow for β-gal gene expression. […]
(§3) In the cell culture transduction assay, β-gal expression was analyzed by immunofluorescence. For quantification of expression in cell culture, the transduced cells were washed with PBS and permeabilized with 0.2% Triton X-100 for five minutes on ice, followed by blocking with 1% BSA in PBS. […] The degree of β-gal gene expression was determined by counting fluorescent cells in at least ten fields under an inverted microscope (Nikon, Japan). Quantification of the β-gal activity in cell culture was measured as relative light units (RLU) in a luminometer and then normalized to the amount of protein in micrograms, as determined by the Lowry method in a protein assay kit (Bio-Rad Protein Assay®; Hercules, Calif.). […]

[5] = target: T1, prohibitin (Mus musculus, UniProt P67778); assay: Adipose receptor identification by binding and immunoprecipitation
T1 construct: from tissue; host or cells: mouse adipose tissue extract
T1 sequence (P67778 2-272): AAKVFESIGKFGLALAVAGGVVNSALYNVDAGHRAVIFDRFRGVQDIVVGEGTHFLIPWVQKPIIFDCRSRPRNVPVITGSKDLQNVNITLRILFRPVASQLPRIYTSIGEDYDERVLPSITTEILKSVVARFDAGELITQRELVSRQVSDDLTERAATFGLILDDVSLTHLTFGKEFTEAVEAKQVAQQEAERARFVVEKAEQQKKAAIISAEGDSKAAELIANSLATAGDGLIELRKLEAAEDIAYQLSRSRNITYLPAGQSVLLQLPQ
Protocol: A band of approximately 35,000 Daltons (35 kDa) was isolated from mouse adipose tissue extract that bound to […] (SEQ ID NO:81) conjugated to (KLAKLAK)2 (SEQ ID NO:1) (not shown). […] The 35 kDa band was analyzed by mass spectrometry, which identified three proteins present in the sample.
The three proteins included predominately a B cell receptor associated protein (prohibitin), apolipoprotein E, and the voltage dependent anion channel (VDAC). Further studies were performed by immunoprecipitation, using either […] (SEQ ID NO:81) or CARAC (SEQ ID NO:71) conjugated to […] (SEQ ID NO:1) and precipitating with commercially available antibodies.

[6] = tested on: subcutaneous white fat; assay: In vivo phage library screening for fat-homing peptides; parameters: species or system ob/ob mice; details: mouse
Protocol: In vivo phage-display screening of the CX7C library (C, cysteine; X, any amino acid) (Pasqualini et al., 2000; Arap et al., Nature Med. 8:121-127, 2002) for fat-homing peptides was performed (Pasqualini & Rouslahti 1996, Pasqualini et al., 2000). In each biopanning round, an adult ob/ob mouse was injected intravenously (tail vein) with 10^10 transducing units (TU) of the library. Phage (˜300 TU/g in round 1 increased to ˜10^4 TU/g in round 3) were recovered after 5 min of circulation by grinding subcutaneous white fat with a glass Dounce homogenizer, suspending the homogenate in 4° C. Dulbecco's Modified Eagle's medium (DMEM) containing proteinase inhibitors (DMEM-prin: 1 mM PMSF, 20 μg/ml aprotinin, and 1 μg/ml leupeptin) and washing with DMEM-prin. The lipid phase was discarded during the washes and only the solid-phase cellular material was used. Washed homogenates were incubated with host bacteria (log phase E. coli K91kan; OD600˜2). Bacterial cultures were plated onto Luria-Bertani agar plates containing 40 μg/ml tetracycline and 100 μg/ml kanamycin, incubated overnight at 37° C. and selected clones were bulk-amplified and used to precipitate phage for a subsequent round of biopanning. The sub-library amplified after the third round of panning was enriched for fat-specific binders using a subtraction step. […]

[7] = tested on: white fat vasculature; assay: Peptide and phage localization in tissues; type: in vivo; details: intravenous, ob/ob mice
Protocol: as §1

[8] = tested on: white fat vasculature; assay: Peptide localization in tissues; type: in vivo, C57BL/6 mice
Protocol: as §1

[9] = tested on: KS1767 cells; assay: Targeted phage vector transduction and peptide inhibition in cell culture; type: cell-based, human; details: cells pre-incubated with synthetic peptide
Protocol: as §2, §3

[10] = tested on: bone marrow metastasis from a prostate cancer; assay: Immunohistochemical staining inhibition; parameters: species or system human; details: GRP78 staining of bone marrow metastasis
Protocol: Paraffin sections (4 μm) were stained with purified biotinylated antibodies and peptide antibodies by immunoperoxidase detection using the Dako antigen retrieval kit and DAB (diaminobenzidine) as a substrate. All of the sections were counter-stained with hematoxylin. Purified IgGs were coupled to biotin and resolved by SDS-PAGE. The biotinylated immunopurified antibodies were used at a dilution of 1:60. Peptide C antibodies and purified pre-immune antibodies were used at 0.01 μg/μl. For the inhibition staining, peptide C antibodies were pre-incubated for 30 minutes at room temperature with the corresponding GST-peptide C (500 μg) prior to staining. For the GRP78 immunostaining, anti-GRP78 antibody (C-20) was used at 1:350 (Santa Cruz Biotechnology, Santa Cruz, Calif.). Peptide antibodies were generated in rabbits and purified using a T-gel immunoglobulin purification kit and protein G column (Pierce).

[11] = tested on: patient's serum antibodies, anti-GRP78 antibody, anti-CNVSDKSC antibodies; assay: Cross-inhibition assay; type: binding, human; details: anti-GRP78 and anti-CNVSDKSC antibodies
Protocol: Microtiter 96-well plates were coated with 10 μg/ml recombinant GRP78 (Stressgen) or GST attached to […] (SEQ ID NO:39) in 100 mM NaHCO3 overnight at 4° C., washed and then blocked with blocking buffer (2% milk, 1% casein, 0.05% Tween-20 in PBS) for 2 hours at 37° C. To determine the inhibitory activities of GRP78 or GST-[…] (SEQ ID NO:39), patient serum (1:50), anti-GRP78 (1:1000), and anti-GST-[…] (1:20) were incubated with GRP78 (50-100 μg) or GST-[…] (SEQ ID NO:39) (100-300 μg). The mixtures were incubated for 1 hour at 37° C. prior to adding to the coated wells. After 1 hour of incubation at room temperature the wells were washed several times with PBST buffer (0.05% Tween-20 in PBS). Secondary antibodies conjugated to horseradish peroxidase were added at 1:5000 dilution, incubated for 30 minutes at room temperature and washed five times with PBST buffer. Finally, the substrate 3,3′,5,5′-Tetramethylbenzidine (TMB; Calbiochem) was added and incubated for 15 minutes at room temperature before stopping the reaction by addition of 0.5M H2SO4. Absorbance at 450 nm was determined in an automated ELISA reader (Bio-Tek).

In the case of `CC(C)C[C@@H](NC(=O)[C@@H](CCCCN)NC(=O)CNC(=O)CNC(=O)[C@@H]1CSSC[C@H](N)C(=O)N[C@@H](CCCCN)C(=O)NCC(=O)NCC(=O)N[C@@H](CCCNC(=N)N)C(=O)N[C@@H](C)C(=O)N[C@@H](CCCCN)C(=O)N[C@@H](CC(=O)O)C(=O)N1)C(=O)N[C@H](C)C(=O)N[C@H](CCCCN)C(=O)N[C@H](CC(C)C)C(=O)N[C@H](C)C(=O)N[C@H](CCCCN)C(=O)N[C@H](CCCCN)C(=O)N[C@H](CC(C)C)C(=O)N[C@H](C)C(=O)N[C@H](CCCCN)C(=O)N[C@H](CC(C)C)C(=O)N[C@H](C)C(=O)N[C@H](CCCCN)C(=O)O` (H-CKGGRAKDCGG[dK][dL][dA][dK][dL][dA][dK][dK][dL][dA][dK][dL][dA][dK]-OH; disulfide 1-9), the toxicity [1] is reported as “No toxicity”, the “abnormalities in other organs” value [2] is reported as “No abnormalities in other organs” and the mortality [3] is reported as “occasionally observed to result in mortality”.

With CDCRGDCFC (also: cyclized) [RGD-4C] the “inhibition of RGD-4C-β-gal phage transduction” value [4] was “greater than 99%”.

With CKGGRAKDC the receptor identified ([5]; adipose tissue endothelial receptor) was “prohibitin”, the “enrichment of prohibitin in precipitated fraction” value ([5]; compared to the CARAC precipitated fraction) was “over a ten-fold enrichment” and the “share of all clones identified in the screen” value [6] was 4.5%.

In the case of “CKGGRAKDC-FITC: 5-carboxyfluorescein (FITC)-conjugated cyclized CKGGRAKDC (disulfide 1-9 (inferred); also: FITC conjugate, site not given here)”, the “localization to white fat vasculature” value [7] is reported as “localized to and was internalized by cells of white adipose vasculature”, the “localization to white fat vasculature” value ([8]; intravenous, C57BL/6 (leptin +/+) mice) is reported as “specifically localized to blood vessels of subcutaneous and peritoneal white fat” and the “co-localization with lectin-rhodamine in control tissue” value ([8]; pancreatic tissue) is reported as “No such co-localization was observed”.

With CTTHWGFTLC (disulfide 1-10 (inferred)) the “inhibition of HWGF-β-gal phage transduction” value [9] was “greater than 90%”.

With “GRP78: recombinant 78 kDa glucose regulated protein (Stressgen)” the inhibition of immunostaining [10] was “staining was inhibited” and the “blocking of antibody binding” value [11] was “capable of blocking binding”.
